Our source for the Activity and IC50 values is ChEMBL document CHEMBL1145674, “Isolation and identification of "diazepam-like" compounds from bovine urine” (J Nat Prod, 1983).

The IC50 is the concentration needed to halve the response being measured.

The species named for the first assay is Rattus norvegicus. Put plainly: Increase in [3H]diazepam binding to benzodiazepine receptor in rat cerebral cortex membrane at 0.5 mM relative to control. In kind it is cell membranes.
In turn, `Clc1ccc2[nH]c3ccccc3c2c1` showed an Activity of 143%.

The species named for a further assay is Rattus norvegicus. Put plainly: Increase in [3H]diazepam binding to benzodiazepine receptor in rat cerebral cortex membrane at 1 mM relative to control. Format: cell membranes.
`Clc1ccc2[nH]c3ccccc3c2c1` gave an Activity of 172%.

Tested on in another assay: not listed separately
Description: Displacement of [3H]diazepam from benzodiazepine receptor in rat cerebral cortex membrane. In kind it is cell membranes.
With `O=c1c(-c2cccc(O)c2)coc2cc(O)ccc12`, the IC50 is 140 µM.

As to `Oc1cccc(C2COc3cc(O)ccc3C2)c1` (racemic), the concentration for half-maximal inhibition (IC50) worked out at 45 µM. This IC50 lies about 3.1-fold lower than the previous one.

On to `COc1ccc2c(c1)OCC(c1ccc(O)cc1)C2` (racemic), for which the half-maximal inhibitory concentration (IC50) amounted to 1300 µM.

Turning to `COc1ccc(C2COc3cc(O)ccc3C2)cc1` (racemic), the IC50 was determined as 1500 µM.

`Oc1ccc([C@H]2COc3cc(O)ccc3C2)cc1` [AUS-131] had an IC50 of 80 µM.

On to `CN1C(=O)CN=C(c2ccccc2)c2cc(Cl)ccc21` [DIAZEPAM], for which the IC50 came to 0.005 µM.

Compound `COc1ccc(-c2coc3cc(O)ccc3c2=O)cc1` [FORMONONETIN] registered an IC50 of 700 µM.

In turn, `O=c1[nH]cnc2nc[nH]c12` [HYPOXANTHINE] registered an IC50 of 700 µM.

For `O=c1[nH]cnc2c1ncn2[C@@H]1O[C@H](CO)[C@@H](O)[C@H]1O` [INOSINE], the half-maximal inhibitory concentration (IC50) came to 900 µM.

As to `COc1ccc2c(=O)c(-c3ccc(O)cc3)coc2c1` [ISOFORMONENTIN], the IC50 was found to be 1100 µM.

In turn, `NC(=O)c1cccnc1` [NIACINAMIDE] showed an IC50 of 3900 µM.
